For seven molecules, GI50 and TGI results are on record in PubChem BioAssay (NCI).

Among the test systems are MDA-MB-231 breast; NCI-H226 lung; OVCAR-4 ovarian; OVCAR-8 ovarian; SF-268 CNS; SK-MEL-28 melanoma; SNB-75 CNS; SW-620 colon; T-47D breast; K-562 leukemia.
Assay in all cases: NCI anticancer screen, dose series, 48 h

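Test compounds were applied to cells in 96-well plates for 48 hours at 5 doses. Here, GI50 denotes the concentration required for 50% inhibition of growth. TGI: concentration producing complete growth inhibition.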 Bounds are passed on as bounds.

With `Cc1nn(-c2ccc(Cl)cc2)c2nc3c(nc12)C(=O)C(=O)c1ccccc1-3`, the GI50 was 4.31 µM with MDA-MB-231 breast; 7.65 µM in the assay with NCI-H226 lung; 6.08 µM in the assay with OVCAR-4 ovarian; 21.7 µM in the assay with OVCAR-8 ovarian; 12.4 µM in the assay on SF-268 CNS; 7.76 µM in the assay with SK-MEL-28 melanoma. Moreover, the GI50 is 1.66 µM with SNB-75 CNS, 3.25 µM in the assay with SW-620 colon and 12.1 µM in the assay with T-47D breast. For the same molecule, the TGI was 66.3 µM in the assay on MDA-MB-231 breast; 30.1 µM in the assay with NCI-H226 lung; greater than 100 µM in the assay on OVCAR-4 ovarian; greater than 100 µM with OVCAR-8 ovarian; greater than 100 µM in the assay with SF-268 CNS; 74.8 µM with SK-MEL-28 melanoma. For the same molecule, the TGI with SNB-75 CNS was determined as 4.3 µM; in the assay with SW-620 colon, 20.9 µM; in the assay on T-47D breast, 29.9 µM.
With `COc1ccc(N(/C=C/C(=O)C(F)(F)F)CC(=O)c2ccc(F)cc2)cc1`, the GI50 is 16.1 µM in the assay with MDA-MB-231 breast; 12.1 µM in the assay on NCI-H226 lung; 45.3 µM in the assay with OVCAR-4 ovarian; 32.1 µM in the assay with OVCAR-8 ovarian; 20.3 µM with SF-268 CNS; 41.1 µM with SK-MEL-28 melanoma. Besides, the results for the GI50 with SNB-75 CNS, in the assay on SW-620 colon and in the assay on T-47D breast were greater than 100 µM, 35 µM and 32.1 µM, respectively. Besides, the TGI in the assay on MDA-MB-231 breast was 48.4 µM; in the assay on NCI-H226 lung, 33.3 µM; in the assay with OVCAR-4 ovarian, greater than 100 µM; in the assay on OVCAR-8 ovarian, greater than 100 µM; with SF-268 CNS it was 45.2 µM; in the assay with SK-MEL-28 melanoma, greater than 100 µM. Further, the TGI in the assay with SNB-75 CNS, in the assay on SW-620 colon and in the assay on T-47D breast was greater than 100 µM each time.
Consider `C=C1c2ccoc2C[C@H]2[C@H]1CC[C@@]1(O)[C@@](C)(C(=O)OC)CCC[C@]21C`, for which the GI50 in the assay on MDA-MB-231 breast was 36.6 µM; with NCI-H226 lung, 18.1 µM; in the assay on OVCAR-4 ovarian, 86.5 µM; in the assay on OVCAR-8 ovarian, greater than 100 µM; in the assay with SF-268 CNS it was 22.7 µM; with SK-MEL-28 melanoma it was 54.2 µM. Further, the GI50 is greater than 100 µM in the assay with SNB-75 CNS, 29.8 µM in the assay with SW-620 colon and 27.3 µM in the assay with T-47D breast. Moreover, the TGI was greater than 100 µM with MDA-MB-231 breast; 56.2 µM with NCI-H226 lung; greater than 100 µM with OVCAR-4 ovarian; greater than 100 µM in the assay with OVCAR-8 ovarian; 73.5 µM in the assay with SF-268 CNS; greater than 100 µM in the assay on SK-MEL-28 melanoma. The TGI in the assay on SNB-75 CNS is greater than 100 µM; in the assay on SW-620 colon, 85.5 µM; with T-47D breast, greater than 100 µM.
Regarding `O=[N+]([O-])c1cc(Cl)cnc1Br`, the TGI is 6.08 µM in the assay on K-562 leukemia; 12.2 µM in the assay on MDA-MB-231 breast; 6.62 µM in the assay on NCI-H226 lung; 3.82 µM with OVCAR-4 ovarian; 5.02 µM in the assay with OVCAR-8 ovarian; 5.81 µM in the assay with SF-268 CNS. In addition, the figures for the TGI with SK-MEL-28 melanoma, in the assay with SW-620 colon and in the assay on T-47D breast were 10.2 µM, 12.7 µM and greater than 100 µM, respectively.
Turning to `CCN1C(=O)N(CC)C2C1NN=c1s/c(=C\c3ccccn3)c(=O)n12` (stereo not drawn), the GI50 is 0.446 µM in the assay with K-562 leukemia; 4.05 µM in the assay with MDA-MB-231 breast; 3.07 µM with NCI-H226 lung; greater than 100 µM with OVCAR-4 ovarian; 3.98 µM in the assay on OVCAR-8 ovarian; 88.5 µM with SF-268 CNS. Further, the GI50 was 4.95 µM with SK-MEL-28 melanoma, 0.743 µM with SW-620 colon and 4.84 µM in the assay on T-47D breast. For the same molecule, the TGI with K-562 leukemia, in the assay with MDA-MB-231 breast, with NCI-H226 lung, in the assay with OVCAR-4 ovarian, with OVCAR-8 ovarian and in the assay on SF-268 CNS was greater than 100 µM each time. Moreover, the TGI with SK-MEL-28 melanoma, in the assay on SW-620 colon and in the assay with T-47D breast was greater than 100 µM each time.
Take `CN1CCc2[nH]nc(-c3n[nH]c4c3CN(C)CC4)c2C1`: the TGI in the assay on K-562 leukemia, with MDA-MB-231 breast, in the assay on NCI-H226 lung, with OVCAR-4 ovarian, in the assay on OVCAR-8 ovarian and in the assay with SF-268 CNS was greater than 100 µM in each case. Besides, the TGI in the assay with SK-MEL-28 melanoma, in the assay with SW-620 colon and in the assay with T-47D breast was greater than 100 µM each time.
As to `COC(=O)C1=C(C)NC(C)=C(C(=O)OCC(C)C)C1c1ccccc1[N+](=O)[O-]` (stereo not drawn), the GI50 in the assay with MDA-MB-231 breast was 4.04 µM; in the assay with NCI-H226 lung, 3.75 µM; in the assay on OVCAR-4 ovarian, 2.32 µM; with OVCAR-8 ovarian, 4.33 µM; in the assay on SF-268 CNS, 7.8 µM; in the assay with SK-MEL-28 melanoma it was 4.18 µM. Further, the GI50 in the assay with SNB-75 CNS is 2.44 µM; in the assay with SW-620 colon, 3.11 µM; with T-47D breast, 3.9 µM. In addition, the TGI is 17.1 µM with MDA-MB-231 breast; 15.1 µM with NCI-H226 lung; 11.8 µM with OVCAR-4 ovarian; 21 µM with OVCAR-8 ovarian; 22.7 µM in the assay on SF-268 CNS; 15.2 µM with SK-MEL-28 melanoma. The TGI in the assay on SNB-75 CNS turned out to be 15.2 µM; in the assay on SW-620 colon, 11.4 µM; in the assay on T-47D breast it was 16.4 µM.
